Measured values as given in patent publication US20230301958A1, “SATRAPLATIN FOR USE IN THE TREATMENT OF LYMPHOID NEOPLASMS” (priority 2020, published 2023).

Legend:
[1] = system: DLBCL cell lines; assay: CellTiter-Glo luminescent cell viability assay, DLBCL cell lines; assay type: cell-based, human; conditions: 72h incubation, CTG assay
Description: (§1) Hereto, the 50% inhibitory concentration (IC50) was determined in said cancer cell lines using the CellTiter-Glo® (CTG) luminescent cell viability assay after a 72h incubation with different concentrations of the two drugs ranging from 10 nM to 100 uM.
(§2) All cell lines were cultured in the media supplemented with 10-15% FBS, at a temperature of 37° C., 5% CO2 and 95% humidity. Cell viability was measured using the CTG Luminescent Cell Viability Assay by standard procedures. Satraplatin was purchased from MedChemExpress (China) and cisplatin from Qilu Pharm (China), respectively. 1 mM solution of both drugs were established for storage at -20° C. as previously described (Wosikowski K et al., Cancer Chemother Pharmacol (2007) 60(4):589-600).
(§3) Cells were harvested during the logarithmic growth period and count cell number using Count-star. Cell concentrations were adjusted to 4.44×10^4 cells/mL with the respective culture medium. […] Luminescence was recorded using EnVision Multi Label Reader.
(§4) In order to calculate absolute IC50 (EC50), a dose-response curve was fitted using a nonlinear regression model with a sigmoidal dose response. […] The absolute IC50 (EC50) was calculated according to the dose-response curve generated by GraphPad Prism 5.0. The standard deviation was calculated for each dose level and each cell line and is indicated by the bars.

[2] = system: OCI Ly-3 cell line; assay: CellTiter-Glo luminescent cell viability assay, OCI-LY-3; assay type: cell-based, human; conditions: PCNSL-like DLBCL cell line, FIG. 3K, 72h
Description: as §1, §2, §3, §4

[3] = system: OCI-LY7 cells; assay: CellTiter-Glo luminescent cell viability assay, OCI-LY-7; assay type: cell-based, human; conditions: DLBCL cell line, 72h
Description: as §1, §2, §3, §4

[4] = system: B-cell lymphoma cell lines (Burkitt lymphoma, mantle cell lymphoma, DLBCL); assay: CellTiter-Glo luminescent cell viability assay, B-cell lymphoma cell lines; assay type: cell-based, human; conditions: mantle cell lymphoma and DLBCL cell lines, FIGS. 1-3
Description: as §1, §2, §3, §4

[5] = system: T-cell lymphoma cell lines; assay: CellTiter-Glo luminescent cell viability assay, T-cell lymphoma cell lines; assay type: cell-based, human; conditions: particularly ALK+ ALCL, FIG. 4A-4D
Description: as §1, §2, §3, §4

[6] = system: multiple myeloma cell lines; assay: CellTiter-Glo luminescent cell viability assay, multiple myeloma cell lines; assay type: cell-based, human; conditions: FIG. 5
Description: as §1, §2, §3, §4

[7] = system: lymphoma and myeloma cell lines; assay: CellTiter-Glo luminescent cell viability assay, panel of 41 lymphoma and multiple myeloma cell lines; assay type: cell-based, human
Description: as §1, §2
Cells were harvested during the logarithmic growth period and count cell number using Count-star. Cell concentrations were adjusted to 4.44×10^4 cells/mL with the respective culture medium. Then, 90 µL cell suspensions were added in triplicate to two 96-well plates (plates A and B) with the final cell density of 4×10^3 cells/well. […] For that purpose, plates were equilibrated at RT for approximately 30 min. Then, 50 µL CTG reagent was added to each well. The content was mixed for 5 min on an orbital shaker to induce cell lysis and the plate incubated at RT for 20 min to stabilize luminescent signal. Luminescence was recorded using EnVision Multi Label Reader.
In order to calculate absolute IC50 (EC50), a dose-response curve was fitted using a nonlinear regression model with a sigmoidal dose response. The formula for calculating surviving rate is: The surviving rate (%) = (LumTest article-LumMedium control)/(LumNon-treated-LumMedium control)×100%. The absolute IC50 (EC50) was calculated according to the dose-response curve generated by GraphPad Prism 5.0. The standard deviation was calculated for each dose level and each cell line and is indicated by the bars.

[8] = system: metastatic prostate cancer; conditions: SPARC trial, patients receiving satraplatin; cited from earlier work
[9] = in vivo, po; cited from earlier work
[10] = in vivo; cited from earlier work

SMILES | IC50 values in DLBCL cell lines [1] | killing of OCI Ly-3 [2] | killing of OCI-LY7 cells compared to cisplatin [3] | inducing cell death, compared to cisplatin [4] | inducing cell death, compared to cisplatin [5] | inducing cell death, compared to cisplatin [6] | relative sensitivity of certain cell lines ([7]; DOHH2, OCI Ly19, SUDHL5, OCI Ly3, Toledo, Z138, Daudi, SUDHL1, HuT78 cell lines, FIG. 6) | IC 50 values, killing of lymphoma cell lines ([7]; FIGS. 1-6, 72h incubation) | sensitivity of all cell lines described ([7]; all tested cell lines) | patients showing a relevant PSA-response (decline of more than 50%) [8] | nephro- or neurotoxicity in clinical trials [9] | CNS penetration [10]
N.N.[Cl][Pt][Cl] [cisplatin] | low micromolar or even sub-molar |  |  |  |  |  |  |  |  |  |  | 
CC(=O)[O][Pt]([NH2])([Cl])([Cl])([NH]C1CCCCC1)[O]C(C)=O [satraplatin, bis (acetato) ammine dichloro (cyclohexylamine) platinum (IV)] | low micromolar or even sub-molar | very effectively killed | significantly superior | at least equivalent to cisplatin | at least equivalent to cisplatin | at least equivalent to cisplatin | particularly sensitive | low micromolar concentrations or even lower | sensitive | 25% | no or not relevant nephro- or neurotoxicity | clinically proven meaningful CNS penetration
